Results: patent US20100047841A1, “SYNTHESIS OF DESACETOXYTUBULYSIN H AND ANALOGS THEREOF” (University of Pittsburgh-of the Commonwealth System of …, priority 2007, published 2010)
“Also recorded” adds a separate entry of the source. Where a name gives a salt, the structure may show the parent alone.

How the values were obtained:
[1] = test system: HeLa human cervical carcinoma cells; assay: High-content analysis of mitotic arrest in HeLa cells; type: cell-based; details: for Microtubule Density MDEC (minimum detectable effective concentration) / Mitotic Index MDEC (percentage of phosphohistone H3-positive cells) / Nuclear Condensation MDEC (minimum detectable effective concentration) / EC50: 20 hours treatment, average of four experiments ± SD; for EC50: Homo sapiens, read-out: Cell Density EC50; for activity in high-content analysis of mitotic arrest (in words): all endpoints measured
Procedure: The effects of tubulysin analogs on mitotic arrest and cellular microtubules were studied. HeLa human cervical carcinoma cells (10,000 per well) were plated in collagen-1 coated 384-well microplates and were treated with vehicle (DMSO) or ten two-fold concentration gradients of test agents within 4-6 hours of seeding. Cells were incubated for 20 hours at 37° C., fixed with formaldehyde, and labeled with 10 μg/mL Hoechst 33342 in Hank's balanced salt solution (HBSS). Cells were permeabilized with 0.5% (w/w) Triton X-100 for 5 min at room temperature and incubated with a primary antibody cocktail consisting of an HBSS solution containing rabbit polyclonal anti-phosphohistone H3 (Ser10, 1:500, Upstate), and mouse monoclonal anti-α-tubulin (1:3000, Sigma), followed by a mixture of FITC-labeled donkey anti-mouse IgG (1:500) and Cy3-labeled donkey anti-rabbit IgG (1:500). Cells were rinsed once with HBSS and stored at 4° C. in HBSS until analysis.
Microplates were analyzed with an ArrayScanII instrument (Cellomics, Pittsburgh, Pa.) using the Target Activation Bioapplication (Cellomics, Inc.). Within the application, 1,000 individual cells in each well were imaged at three different wavelengths, using an Omega XF93 filter set at excitation/emission wavelengths of 350/461 nm (Hoechst), 494/519 nm (FITC), and 556/573 nm (Cy3). The following parameters were used for data analysis: average nuclear intensity, nuclei per field, average nuclear FITC intensity, and average nuclear Cy3 intensity. A nuclear mask was generated from Hoechst 33342-stained nuclei. Microtubule density and histone H3 phosphorylation were measured in the FITC and Cy3 channel, respectively. Microtubule density was defined as the average green (FITC) pixel intensity in an area defined by the nuclear mask. For determination of mitotic index and nuclear condensation, thresholds for Hoechst 33342 and phosphohistone-H3 intensities were defined as the average Hoechst 33342 or Cy3 intensity plus one standard deviation from twenty-eight vehicle-treated wells placed in the center of the microplate.
Cells were classified as positive if their average Hoechst 33342 or Cy3 intensity exceeded this threshold. To illustrate visually the effects of test agents on cellular microtubules and mitotic arrest, the identical 384-well plates then were used to acquire higher resolution images of selected wells.
Asynchronously growing HeLa cells were treated for 20 hours with each compound in collagen-coated 384 well microplates, fixed, and incubated with primary antibodies for tubulin and the mitotic marker protein phosphohistone H3, followed by FITC and Cy3-conjugated secondary antibodies, respectively. Cells were detected by nuclear counterstaining with Hoechst 33342, which also provided information about chromatin condensation and cell density as markers of cell death.

[2] = test system: bovine brain tubulin; assay: Inhibition of GTP-induced tubulin assembly (turbidimetry at 350 nm); type: biochemical; details: after 20 min at 30° C., 10 μM bovine brain tubulin, 0.8 M monosodium glutamate
Procedure: Bovine brain tubulin was isolated to electrophoretic homogeneity from fresh brains via methodology described by Hamel and Lin, Biochemistry 23: 4173-84 (1984). Tubulin (final concentration 10 μM; 1 mg/mL) was preincubated with test agents dissolved in DMSO (4% v/v final concentration) and monosodium glutamate (0.8 M final concentration, pH 6.6) for 15 minutes at 30° C. The reaction mixture was cooled to 0° C., and GTP (0.4 mM final concentration) was added. Reaction mixtures were transferred to cuvettes held at 2.5° C. in a Beckmann DU 7400 multichannel, temperature-controlled (Peltier unit) spectrophotometer, reading absorbance (turbidity) at 350 nm in each cuvette every 15 seconds. Baselines were established and temperature was quickly raised to 30° C. (in approximately 1 minute). After 20 minutes, the temperature was returned to 2.5° C. The turbidity value after 20 minutes at 30° C. for GTP alone was assigned as 100% assembly, and for DMSO alone as 0% assembly. The IC50 was calculated by linear regression of the percent assembly values at the same time point obtained with 0.625, 1.25, 2.5, 5, 10 and 20 μM test agent. In experiments to test for disassembly of preformed tubulin polymer, the test agent was added after 7 minutes of GTP-induced assembly.

[3] = test system: bovine brain tubulin (vinca domain); assay: Inhibition of [3H]vinblastine binding to tubulin (centrifugal gel filtration); details: for % Inhibition of [3H]vinblastine binding by 5 μM test agent / IC50: 10 μM radiotracer, 10 μM tubulin; for % Inhibition of [3H]vinblastine binding by 5 μM test agent: 30 min room temperature; for IC50: test agent 0.5-100 μM, Hill fit
Procedure: The new compounds were tested for their abilities to bind at the vinca domain and at the related peptide/depsipeptide site on tubulin using a modification of a centrifugal gel filtration method described by Bai et al., Mol. Pharmacol. 7: 965-76 (1995). In the initial screens, each 0.32 mL reaction mixture contained 5 μM test agent and 10 μM [^3H]vinblastine (specific activity 8.50 Ci/mmol; GE Healthcare Bio-Sciences, Picataway, N.J.) or 10 μM [^3H]dolastatin 10 (specific activity 1.96 Ci/mmol; obtained from the Drug Synthesis and Chemistry Branch of the National Cancer Institute) predissolved in DMSO (final concentration 1% v/v) and 10 μM bovine brain tubulin, all in 0.1 M 2-(4-morpholino)ethanesulfonic acid (Mes), pH 6.9, containing 0.5 mM MgCl2. The mixture was incubated for 30 min at room temperature. Two 0.15 mL aliquots of the reaction mixture were applied to duplicate 2 mL beds of pre-swollen (in Mes, pH 6.9, containing 0.5 mM MgCl2) Sephadex G-50 (superfine) contained in Handee columns (Pierce Biotechnology, Rockford, Ill.). The columns were centrifuged at 800×g for 4 minutes and the protein concentration in the effluent was determined, using the bicinchoninic acid assay. The amount of radiolabeled ligand bound to tubulin was determined using scintillation spectrometry. Each value represents the mean ±SD of four determinations. […] Inhibition was calculated as the percent difference relative to that of the control incubation with DMSO (i.e., without test agent—assigned as 0% inhibition). […] GraphPad Prism was used to fit the resulting data to the Hill equation to determine the IC50 values.

| Structure (SMILES) | Microtubule Density MDEC (minimum detectable effective concentration) [1] [nM] | Mitotic Index MDEC (percentage of phosphohistone H3-positive cells) [1] [nM] | Nuclear Condensation MDEC (minimum detectable effective concentration) [1] [nM] | EC50 [1] [µM] | activity in high-content analysis of mitotic arrest (in words) ([1]; trifluoroacetic acid salt) | potency relative to paclitaxel, vincristine, or WZY-III-69A ([1]; all of the endpoints measured) [fold] | IC50 [2] [µM] | ability to inhibit [3H]vinblastine binding to isolated tubulin (in words) [3] | % Inhibition of [3H]vinblastine binding by 5 μM test agent [3] [%] | IC50 [3] [µM] | activity in high-content analysis of mitotic arrest (in words) [1] |
| --- | --- | --- | --- | --- | --- | --- | --- | --- | --- | --- | --- |
| CCC(C)[C@H](NC(=O)[C@H]1CCCCN1C)C(=O)N(C)[C@H](C[C@@H](OC(C)=O)c1nc(C(=O)N[C@@H](Cc2ccccc2)C[C@H](C)C(=O)O)cs1)C(C)C (some centres unmarked) [WZY-III-63C, N^14-Desacetoxytubulysin H trifluoroacetic acid salt] | 0.16 ± 0.05 | 0.10 ± 0.02 | 0.13 ± 0.04 | 0.00037 ± 9e-05 | active in the picomolar range; also recorded: almost two orders of magnitude more potent than vincristine or paclitaxel; also recorded: activity in the picomolar range | ~50 | 2.3 | equipotent to dolastatin 10 | 50 ± 4 | 5.6 ± 0.5 |  |
| CCC(C)[C@H](NC(=O)CN(C)C)C(=O)N(C)[C@H](C[C@H](OC(C)=O)c1nc(C(=O)N[C@@H](Cc2ccccc2)C[C@H](C)C(=O)O)cs1)C(C)C (stereo partly drawn) [WZY-III-64A, (2S,4R)-4-(2-((6S,9R,11S)-6-sec-Butyl-9-isopropyl-2,8-dimethyl-4,7,13-trioxo-12-oxa-2,5,8-triazatetradecan-11-yl)thiazole-4-carboxamido)-2-methyl-5-phenylpentanoic acid] | 56.6 ± 30.9 | 23.9 ± 5.8 | 32.4 ± 8.6 | 0.0957 ± 0.0208 |  |  | > 5 |  | 2 ± 5 | > 50 | about five-fold less active |
| CCC(C)[C@H](NC(=O)CN(C)C)C(=O)N(C)[C@H](C[C@@H](OC(C)=O)c1nc(C(=O)N[C@@H](Cc2ccccc2)C[C@H](C)C(=O)O)cs1)C(C)C (stereo partly drawn) [WZY-III-69A, (2S,4R)-4-(2-((6S,9R,11R)-6-sec-Butyl-9-iso-propyl-2,8-dimethyl-4,7,13-trioxo-12-oxa-2,5,8-triazatetradecan-11-yl)thiazole-4-carboxamido)-2-methyl-5-phenylpentanoic acid] | 15.1 ± 11.1 | 2.5 ± 0.4 | 12.4 ± 10.2 | 0.0175 ± 0.0066 |  |  | 3.1 |  | 43 ± 1 | 8.8 ± 1.6 | as active as paclitaxel or vincristine |
